Measurements as given in ChEMBL document CHEMBL1201862, “PubChem BioAssay data set” (2004).
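96-well plates; 48 h exposure; 5 concentrations. Endpoints by linear interpolation between flanking doses. Not reached: highest tested concentration assigned. At the GI50, growth is halved.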 The source made the active and inactive calls. No stated cut-off is given here; in the data, active = GI50 up to about 1.1 µM and inactive = higher.

Columns and labels:
Experiment in all cases: DTP human tumour cell line panel, 48 h
SNB-75 = tested on: SNB-75
SW-620 = tested on: SW-620
UO-31 = tested on: UO-31
HT-29 = tested on: HT-29
SF-539 = tested on: SF-539
Hs-578T = tested on: Hs-578T
HCT-116 = tested on: HCT-116
UACC-257 = tested on: UACC-257
SF-268 = tested on: SF-268
SK-OV-3 = tested on: SK-OV-3
SNB-19 = tested on: SNB-19
IGROV-1 = tested on: IGROV-1
M14 = tested on: M14
TK-10 = tested on: TK-10
SK-MEL-5 = tested on: SK-MEL-5
MCF7 = tested on: MCF7
CAKI-1 = tested on: CAKI-1
SN12C = tested on: SN12C
U-251 = tested on: U-251
COLO 205 = tested on: COLO 205
786-0 = tested on: 786-0
OVCAR-8 = tested on: OVCAR-8
MDA-N = tested on: MDA-N
DU-145 = tested on: DU-145
HL-60 = tested on: HL-60
SR = tested on: SR
SF-295 = tested on: SF-295
Malme-3M = tested on: Malme-3M
A549 = tested on: A549
HOP-92 = tested on: HOP-92
NCI-H460 = tested on: NCI-H460
ACHN = tested on: ACHN
HOP-62 = tested on: HOP-62
HCC 2998 = tested on: HCC 2998
NCI-H23 = tested on: NCI-H23
OVCAR-4 = tested on: OVCAR-4
RPMI-8226 = tested on: RPMI-8226
MDA-MB-231 = tested on: MDA-MB-231
A498 = tested on: A498
MOLT-4 = tested on: MOLT-4
OVCAR-5 = tested on: OVCAR-5
SK-MEL-28 = tested on: SK-MEL-28
NCI-H522 = tested on: NCI-H522
NCI-H226 = tested on: NCI-H226
HCT-15 = tested on: HCT-15
PC-3 = tested on: PC-3
RXF 393 = tested on: RXF 393
MDA-MB-435 = tested on: MDA-MB-435
EKVX = tested on: EKVX
BT-549 = tested on: BT-549
KM12 = tested on: KM12
K562 = tested on: K562
T47D = tested on: T47D
UACC-62 = tested on: UACC-62
CCRF-CEM = tested on: CCRF-CEM
NCI/ADR-RES = tested on: NCI/ADR-RES
SK-MEL-2 = tested on: SK-MEL-2
LOX IMVI = tested on: LOX IMVI
OVCAR-3 = tested on: OVCAR-3

**Q.** For `CC(=O)O[C@H]1C(=O)[C@@]2(C)[C@H]([C@H](OC(=O)c3ccc([N+](=O)[O-])cc3)[C@]3(O)C[C@H](OC(=O)[C@H](O)[C@@H](NC(=O)c4ccccc4)c4ccccc4)C(C)=C1C3(C)C)[C@]1(OC(C)=O)CO[C@@H]1C[C@@H]2O`, which GI50 (SNB-75) is on record?
**A.** > 25 µM (inactive)

**Q.** What about the GI50 (SW-620) of the same molecule?
**A.** > 25 µM (inactive)

**Q.** What about the GI50 (UO-31) of the same molecule?
**A.** > 25 µM (inactive)

**Q.** What about the GI50 (HT-29) of the same molecule?
**A.** > 25 µM (inactive)

**Q.** What about the GI50 (SF-539) of the same molecule?
**A.** > 25 µM (inactive)

**Q.** And the GI50 (Hs-578T)?
**A.** > 25 µM (inactive)

**Q.** And the GI50 (HCT-116)?
**A.** > 25 µM (inactive)

**Q.** And the GI50 (UACC-257)?
**A.** > 25 µM (inactive)

**Q.** And the GI50 (SF-268)?
**A.** > 25 µM (inactive)

**Q.** And the GI50 (SK-OV-3)?
**A.** > 25 µM (inactive)

**Q.** And the GI50 (SNB-19)?
**A.** > 25 µM (inactive)

**Q.** And the GI50 (IGROV-1)?
**A.** > 25 µM (inactive)

**Q.** And the GI50 (M14)?
**A.** > 25 µM (inactive)

**Q.** And the GI50 (TK-10)?
**A.** > 25 µM (inactive)

**Q.** And the GI50 (SK-MEL-5)?
**A.** > 25 µM (inactive)

**Q.** What about the GI50 (MCF7) of the same molecule?
**A.** > 25 µM (inactive)

**Q.** And the GI50 (CAKI-1)?
**A.** > 25 µM (inactive)

**Q.** What about the GI50 (SN12C) of the same molecule?
**A.** > 25 µM (inactive)

**Q.** What about the GI50 (U-251) of the same molecule?
**A.** > 25 µM (inactive)

**Q.** What about the GI50 (COLO 205) of the same molecule?
**A.** > 25 µM (inactive)

**Q.** And the GI50 (786-0)?
**A.** > 25 µM (inactive)

**Q.** What about the GI50 (OVCAR-8) of the same molecule?
**A.** > 25 µM (inactive)

**Q.** What about the GI50 (MDA-N) of the same molecule?
**A.** 16.8 µM (inactive)

**Q.** And the GI50 (DU-145)?
**A.** > 25 µM (inactive)

**Q.** What about the GI50 (HL-60) of the same molecule?
**A.** > 25 µM (inactive)

**Q.** And the GI50 (SR)?
**A.** > 25 µM (inactive)

**Q.** What about the GI50 (SF-295) of the same molecule?
**A.** > 25 µM (inactive)

**Q.** And the GI50 (Malme-3M)?
**A.** > 25 µM (inactive)

**Q.** What about the GI50 (A549) of the same molecule?
**A.** > 25 µM (inactive)

**Q.** What about the GI50 (HOP-92) of the same molecule?
**A.** > 25 µM (inactive)

**Q.** What about the GI50 (NCI-H460) of the same molecule?
**A.** > 25 µM (inactive)

**Q.** And the GI50 (ACHN)?
**A.** > 25 µM (inactive)

**Q.** And the GI50 (HOP-62)?
**A.** > 25 µM (inactive)

**Q.** And the GI50 (HCC 2998)?
**A.** > 25 µM (inactive)

**Q.** And the GI50 (NCI-H23)?
**A.** > 25 µM (inactive)

**Q.** What about the GI50 (OVCAR-4) of the same molecule?
**A.** > 25 µM (inactive)

**Q.** And the GI50 (RPMI-8226)?
**A.** > 25 µM (inactive)

**Q.** And the GI50 (MDA-MB-231)?
**A.** > 25 µM (inactive)

**Q.** What about the GI50 (A498) of the same molecule?
**A.** > 25 µM (inactive)

**Q.** And the GI50 (MOLT-4)?
**A.** > 25 µM (inactive)

**Q.** What about the GI50 (OVCAR-5) of the same molecule?
**A.** > 25 µM (inactive)

**Q.** And the GI50 (SK-MEL-28)?
**A.** > 25 µM (inactive)

**Q.** And the GI50 (NCI-H522)?
**A.** > 25 µM (inactive)

**Q.** And the GI50 (NCI-H226)?
**A.** > 25 µM (inactive)

**Q.** And the GI50 (HCT-15)?
**A.** > 25 µM

**Q.** What about the GI50 (PC-3) of the same molecule?
**A.** > 25 µM (inactive)

**Q.** And the GI50 (RXF 393)?
**A.** > 25 µM (inactive)

**Q.** What about the GI50 (MDA-MB-435) of the same molecule?
**A.** > 25 µM (inactive)

**Q.** What about the GI50 (EKVX) of the same molecule?
**A.** > 25 µM (inactive)

**Q.** And the GI50 (BT-549)?
**A.** > 25 µM (inactive)

**Q.** And the GI50 (KM12)?
**A.** > 25 µM (inactive)

**Q.** And the GI50 (K562)?
**A.** > 25 µM (inactive)

**Q.** And the GI50 (T47D)?
**A.** > 25 µM (inactive)

**Q.** And the GI50 (UACC-62)?
**A.** > 25 µM (inactive)

**Q.** And the GI50 (CCRF-CEM)?
**A.** > 25 µM (inactive)

**Q.** What about the GI50 (NCI/ADR-RES) of the same molecule?
**A.** > 25 µM (inactive)

**Q.** Which results are given for `O=C1Nc2ccccc2/C1=N/NC(=O)C(O)(c1ccccc1)c1ccccc1`?
**A.** GI50 (SNB-75): 21.1 µM (inactive); GI50 (SW-620): 17.1 µM (inactive); GI50 (SK-MEL-2): 17 µM (inactive); GI50 (UO-31): 15.6 µM (inactive); GI50 (HT-29): 19.5 µM (inactive); GI50 (SF-539): 15.8 µM (inactive); GI50 (Hs-578T): 25.6 µM (inactive); GI50 (HCT-116): 22.9 µM (inactive); GI50 (UACC-257): 22 µM (inactive); GI50 (SF-268): 27.1 µM (inactive); GI50 (SK-OV-3): 22.9 µM (inactive); GI50 (SNB-19): 16.7 µM (inactive); GI50 (IGROV-1): 19.6 µM (inactive); GI50 (M14): 16.7 µM (inactive); GI50 (TK-10): 28.8 µM (inactive); GI50 (LOX IMVI): 16.7 µM (inactive); GI50 (SK-MEL-5): 16.2 µM (inactive); GI50 (MCF7): 22.4 µM (inactive); GI50 (CAKI-1): 31.7 µM (inactive); GI50 (U-251): 18.2 µM (inactive); GI50 (COLO 205): 18 µM (inactive); GI50 (786-0): 35.4 µM (inactive); GI50 (OVCAR-8): 24.7 µM (inactive); GI50 (MDA-N): 16.9 µM (inactive); GI50 (DU-145): 25.1 µM (inactive); GI50 (HL-60): 17.4 µM (inactive); GI50 (SR): 21.2 µM (inactive); GI50 (SF-295): 18.8 µM (inactive); GI50 (Malme-3M): 20.7 µM (inactive); GI50 (A549): 17.1 µM (inactive); GI50 (OVCAR-3): 20 µM (inactive); GI50 (HOP-92): 18.9 µM (inactive); GI50 (NCI-H460): 17.2 µM (inactive); GI50 (ACHN): 29.4 µM (inactive); GI50 (HCC 2998): 14.6 µM (inactive); GI50 (NCI-H23): 16.1 µM (inactive); GI50 (OVCAR-4): 24.2 µM (inactive); GI50 (RPMI-8226): 19.6 µM (inactive); GI50 (MDA-MB-231): 18.1 µM (inactive); GI50 (A498): 18.3 µM (inactive); GI50 (MOLT-4): 15.2 µM (inactive); GI50 (OVCAR-5): 17.2 µM (inactive); GI50 (SK-MEL-28): 17.7 µM (inactive); GI50 (NCI-H226): 20.6 µM (inactive); GI50 (HCT-15): 16.4 µM; GI50 (PC-3): 16.6 µM (inactive); GI50 (RXF 393): 14.6 µM (inactive); GI50 (MDA-MB-435): 17 µM (inactive); GI50 (EKVX): 30.5 µM (inactive); GI50 (BT-549): 14.1 µM (inactive); GI50 (KM12): 17.4 µM (inactive); GI50 (K562): 23.2 µM (inactive); GI50 (T47D): 23.8 µM (inactive); GI50 (UACC-62): 15.8 µM (inactive); GI50 (CCRF-CEM): 26.1 µM (inactive); GI50 (NCI/ADR-RES): 23.9 µM (inactive)
